# Experimental data: patent US20260256792A1, “TREATMENT OF CHRONIC SPONTANEOUS URTICARIA BY ADMINISTERING (R)-2-[3-[4-AMINO-3-(2-FLUORO-4-PHENOXY-PHENYL)PYRAZOLO[3,4-D]PYRIMIDIN-1-YL]PIPERIDINE-1-CARBONYL]-4-METHYL-4-[4-(OXETAN-3-YL)PIPERAZIN-1-YL]PENT-2-ENENITRILE” (priority 2023, published 2026)
# Experiments:
# IL-31 = assay: Phase 2 CSU study: serum IL-31 HTRF assay; type: in vivo, human; conditions: for IL-31 (ng/mL) Median Percent Change from Baseline: Baseline to Week 12
# Text: (§1) Blood samples were also collected through Week 12 to evaluate the change in baseline in various biomarkers, including sMRGPRX2, IgG anti-TPO, IgG anti-FCεRI, IgG anti-IgE, and IL-31.
# (§2) Collection of biological samples for other biomarker research was also part of this study. The following samples for biomarker research were required and were to be collected from all participants in this study: • Serum and plasma samples for soluble biomarkers and cellular tests. Analytes included IgG anti-IgE, IgG anti-FcεRI, IgG anti-TPO, IgE anti-TPO, IL-31, and sMRGPRX2. • Blood samples for immune cell phenotyping, including measurement of eosinophil levels • Blood samples for BTK occupancy in peripheral blood mononuclear cells (PBMCs) at selected sites
# (§3) For each patient, serum samples were to be collected on each of four visits (Visits 2, 4, 6, and end of study/follow up).
# (§4) Serum analyte testing was to be performed using the following commercial assays: • sMRGPRX2 ELISA (Cat. No. #MBS933336; MyBioSource) • IL-31 HTRF assay (Cat. No. #62HIL31PEG; Cisbio/PerkinElmer) • IgG anti-TPO ELISA (Cat. No. #ORG503; Orgentec Diagnostica GmbH)
# (§5) If dilutions were to be prepared, the same dilutions were to be prepared twice from each sample. These were to be measured on different plates. Each plate was to include a standard curve. Samples were to be measured twice for all biomarkers except for sMRGPRX2. Mean measurement values were to be calculated, and the concentration of the biomarker was to be calculated using GraphPad Prism 9 software (4-PL model).
# The IL-31 HTRF assay was performed according to the manufacturer's instructions.
# (§6) Assay data ranges are described below. • sMRGPRX2: 0.1 ng/mL-10 ng/mL • IgG anti-FCεRI: 0-10000 arbitrary units (AU) • IgG anti-TPO: 0-3000 international units (IU) • IgE anti-TPO: 0-500 AU • IgG anti-IgE: 0-100000 AU • IL-31: 0.1 ng/mL-20 ng/mL
# IgG anti-TPO = assay: Phase 2 CSU study: serum IgG anti-TPO ELISA; type: in vivo, human; conditions: for IgG anti-TPO (IU) Median Percent Change from Baseline: Baseline to Week 12
# Text: as §1, §2, §3, §4, §5
# The IgG anti-TPO ELISA was performed according to the manufacturer's instructions.
# as §6
# [1] = tested on: 251 kinases sharing a common cysteine in their active site; conditions: 1 μM; cited from earlier work
# platelet aggregation = conditions: healthy volunteers or patients with ITP; cited from earlier work
# cardiac repolarization = conditions: healthy volunteers (N=51), also supratherapeutic doses; cited from earlier work
# [2] = tested on: fetal development or male fertility; conditions: preclinical; cited from earlier work
# rat Arthus reaction = conditions: cited from earlier work
# [3] = tested on: rat collagen-induced arthritis model; conditions: cited from earlier work
# CYP3A = conditions: cited from earlier work
# healthy volunteers = conditions: cited from earlier work
# total serum IgE or IgG = assay: Phase 2 CSU study: total serum immunoglobulins (IgE, IgG, IgM); conditions: for Total IgE (IU/mL) Median Percent Change from Baseline / Total IgG (g/L) Median Percent Change from Baseline: Baseline to Week 12
# Procedure: Changes in disease-relevant biomarkers were assessed over the course of the 12-Week double-blind phase (see FIG. 40). Biomarkers included sMRGPRX2, IgE anti-TPO, IgG anti-FCεRI, IL-31, IgM, IgE, IgG, IgG anti-IgE, and white blood cell levels.
# [4] = tested on: patients with moderate-to-severe CSU; assay: Phase 2 CSU study: safety (TEAEs, SAEs, AESIs), double-blind period
# [5] = 400 mg BID (N = 41), double-blind period, safety population
structure (smiles),measurement,setting,value
"CC(C)(C=C(C#N)C(=O)N1CCC[C@@H](n2nc(-c3ccc(Oc4ccccc4)cc3F)c3c(N)ncnc32)C1)N1CCN(C2COC2)CC1 [rilzabrutinib, (R)-2-[3-[4-amino-3-(2-fluoro-4-phenoxy-phenyl)pyrazolo[3,4-d]pyrimidin-1-yl]piperidine-1-carbonyl]-4-methyl-4-[4-(oxetan-3-yl)piperazin-1-yl]pent-2-enenitrile]",reduction from baseline median IL-31 levels,"IL-31; 400 mg TID, Week 12",8.1%
same,IL-31 (ng/mL) Median Percent Change from Baseline,IL-31; 400 mg BID,−6.8%
same,IL-31 (ng/mL) Median Percent Change from Baseline,IL-31; 400 mg QPM,−11.6%
same,IL-31 (ng/mL) Median Percent Change from Baseline,IL-31; 400 mg TID,−8.1%
same,reduction from baseline for IgG anti-TPO,"IgG anti-TPO; 400 mg TID, Week 12",46.7%
same,IgG anti-TPO (IU) Median Percent Change from Baseline,IgG anti-TPO; 400 mg BID,−19.4%
same,IgG anti-TPO (IU) Median Percent Change from Baseline,IgG anti-TPO; 400 mg QPM,−39.9%
same,IgG anti-TPO (IU) Median Percent Change from Baseline,IgG anti-TPO; 400 mg TID,−46.7%
same,number of kinases inhibited (>90% inhibition) of 251 kinases,[1],6
same,effect on platelet aggregation,platelet aggregation,does not alter
same,effects on cardiac repolarization (ECG parameters incl. corrected QT interval),cardiac repolarization,does not exert clinically relevant effects
same,reproductive toxicity,[2],not expected to harm fetal development or male fertility
same,rat Arthus reaction,rat Arthus reaction,blockade
same,rat collagen-induced arthritis,[3],full disease reversal
same,CYP3A inhibition,CYP3A,mild inhibitor
same,most commonly reported adverse events,healthy volunteers,"gastrointestinal adverse events, including nausea/vomiting and diarrhea"
same,serious adverse events or deaths,healthy volunteers,No serious adverse events or deaths
same,change in total serum IgE or IgG levels,total serum IgE or IgG; 12-week double-blind phase,not associated with a change
same,Total IgE (IU/mL) Median Percent Change from Baseline,total serum IgE or IgG; 400 mg BID,3.9%
same,Total IgG (g/L) Median Percent Change from Baseline,total serum IgE or IgG; 400 mg BID,0.96%
same,Total IgE (IU/mL) Median Percent Change from Baseline,total serum IgE or IgG; 400 mg QPM,3.4%
same,Total IgG (g/L) Median Percent Change from Baseline,total serum IgE or IgG; 400 mg QPM,−1.99%
same,Total IgE (IU/mL) Median Percent Change from Baseline,total serum IgE or IgG; 400 mg TID,4.1%
same,Total IgG (g/L) Median Percent Change from Baseline,total serum IgE or IgG; 400 mg TID,0.24%
same,Participants with any TEAE,[4]; [5],30 (73.2) n (%)
same,Participants with any TEAE leading to death,[4]; [5],0 n (%)
same,Participants with any TEAE leading to death,"[4]; 400 mg QPM (N = 38), double-blind period, safety population",0 n (%)
same,Participants with any TEAE leading to death,"[4]; 400 mg TID (N = 41), double-blind period, safety population",0 n (%)
same,patients with ALT increases>3×ULN (AESI),[4]; BID cohort,1 patient
same,patients with ALT increases>3×ULN (AESI),[4]; QPM cohort,2 patients
same,patients with ALT increases>3×ULN (AESI),[4]; TID cohort,1 patient
same,drug-induced liver injuries (including Hy's law),[4]; double-blind period,no drug-induced liver injuries
same,severe/serious infections or opportunistic infections,[4]; double-blind period,no severe/serious infections or opportunistic infections
same,deaths,[4]; throughout the study,no deaths
same,treatment-emergent SAEs,"[4]; throughout the study, same incidence across all rilzabrutinib dosing groups",3
